According to patent publication US6630490B2, “Methods for treatment of disease-induced peripheral neuropathy and related conditions” (NeoTherapeutics, Inc., priority 2000, dated 2003):

Assays:
[1] = tested on: control and diabetic rats; experiment: Thermal response latency in control and diabetic rats; type: in vivo, rat; details: for thermal hyperalgesia (week 4) and hypoalgesia (week 8): diabetic rats
Description: (§1) Induction of diabetes: Female, adult, Sprague-Dawley rats (250-275 g) were fasted overnight prior to the intraperitoneal injection of a freshly made solution of streptozotocin in 0.9% saline to deliver a dose of 50 mg/kg body weight. Food was restored and animals left for 3 days before determination of glucose levels in a blood sample obtained by tail prick. Animals with blood glucose levels >15 mmol/l were considered diabetic and used in the study. Treatment with the AIT-082 began on the day that hyperglycemia was confirmed. […] If they presented as diabetic then they were added to the study, if not they were omitted.
Thermal response latency: Rats were placed in an observation chamber on the surface (floor temperature 30° C.) of a modified Hargreaves Apparatus (UARD, San Diego Calif.) and allowed to acclimate for 5 minutes. For measurement of thermal response latency, a heat source (delivering 4.5 amps to give a paw withdrawal latency of approximately 10 seconds in control rats) was maneuvered underneath the hind paw. The heat source was turned on manually and a stop clock activated until it shut off automatically when the paw was moved (24 sec cut off time). The procedure was repeated 4 times on the same paw at 5 minute intervals and the median of values 2-4 used to represent the thermal response latency.

[2] = tested on: control and diabetic rats, sciatic nerve; experiment: Sensory nerve conduction velocity (SNCV) in control and diabetic rats; type: in vivo, rat
Description: as §1
Nerve Conduction Velocity (NCV): Rats were anesthetized with halothane (4% in O2 for induction, 2-3% for maintenance) and the sciatic nerve exposed via an incision in the flank followed by separation of underlying musculature by blunt dissection. A thermistor probe was placed adjacent to the nerve and the wound closed with a skin clamp and a second, rectal, probe was positioned. Nerve and rectal temperature was maintained at 37° C. by a heating lamp and thermal pad connected to a temperature regulator and the thermistor probes. […] The distance between the two sites of stimulation was measured using surface calipers and NCV calculated as […]. NCV measurements were made in triplicate and the median used to represent the NCV. The thermistor probes were removed, the skin incision closed with wound clips and coated with Betadine and the animal withdrawn from halothane and monitored until it recovers consciousness. Rats were then returned to their cages with free access to food and water.

[3] = tested on: unoperated rats, mDCN-T13 heat, pinch and touch fields; experiment: Nociceptive nerve sprouting in normally innervated skin (mDCN-T13 field mapping); type: in vivo, rat
Text: (§2) “Isolation” of sensory fields: This procedure, the initial step in the study of collateral sprouting and was done as described in Diamond et al. (1992). Its purpose was to isolate the cutaneous innervation territory, or field, of a selected nerve within a vast surround of denervated back skin. The nerve used was the medial branch of the left dorsal cutaneous nerve (DCN), at segmental level T13 (mDCN-T13). The isolation of its field was achieved by surgically eliminating on the left side the 4 DCNs immediately rostral and caudal to DCN-T13 (respectively T9-T12 and L1-L4), the lateral branch of DCN-T13, and the 4 lateral cutaneous nerves supplying the flank skin adjacent to the DCN-T13 territory.
(§3) Mapping of sensory fields: As described in Nixon et al. (1984) and Doucette and Diamond (1987), the borders of the isolated mechano-nociceptive and heat-nociceptive fields, subserved respectively by the Aδ and C fibers mDCN-T13, were determined by systematically applying across the skin forceps pinches (for mechano-nociception) and brief applications of a 60° C. heat probe (for heat-nociception); the presence of nociceptive endings is indicated during these procedures when the stimuli elicit the “CTM reflex” response, a contraction of the underlying cutaneus trunci muscle, which causes a characteristic and easily recognized skin twitch (Theriault and Diamond, 1988). The low-threshold (“touch”) fields were measured electrophysiologically as described by Jackson and Diamond (1984). The DCN-T13 was placed across bipolar platinum electrodes that fed into a preamplifier and thence to an oscilloscope and audio amplifier. Brushing innervated skin with a fine bristle generates impulses in the large myelinated Aβ axons, producing audible responses that disappear abruptly as the bristle crosses into denervated territory. The areas of the cutaneous territories of the three sensory modalities studied (“pinch”, “heat” and “touch”) were measured using the MCID image analysis system (Imaging Research, Inc., St. Catharines, Ontario, Canada). […]

unoperated animals [4] = experiment: Detection of hyperalgesia; type: in vivo, rat
Description: Detection of hyperalgesia: Nociceptive responses were studied in lightly restrained animals as described in […] et al. (1999), using the latency of foot withdrawal from a 49° C. footbath, the temperature of the footbath at which withdrawal was initiated, and the heat thresholds for evoking the “CTM” reflex from back skin (see above). Hyperalgesia is defined here as a lowering of the threshold of a nociceptive stimulus required to produce a reflex response, and/or a reduction in the latency of that response. Administration of AIT-082: AIT-082 was obtained from NeoTherapeutics Inc., Irvine, Calif., USA. A 50 mg/ml solution in sterile 0.9% NaCl was made up freshly every three days. The standard administration protocol was a daily i.p. injection of 50 mg/kg AIT-082.

[5] = tested on: control and diabetic rats; experiment: Formalin test in control and diabetic rats; type: in vivo, rat
Description: as §1
Formalin test: Rats were restrained manually and formalin (50 μl of 0.2% solution) injected sub-dermally into the hindpaw dorsum. Rats were then placed in an observation chamber and flinching behaviors counted in 1 minute blocks every 5 minutes for 1 hour.

[6] = tested on: rats with isolated mDCN-T13 field receiving anti-NGF; experiment: Sprouting blocked by anti-NGF treatment, rescue by AIT-082; type: in vivo, rat
Text: as §2
Mapping of sensory fields: As described in Nixon et al. (1984) and Doucette and Diamond (1987), the borders of the isolated mechano-nociceptive and heat-nociceptive fields, subserved respectively by the Aδ and C fibers mDCN-T13, were determined by systematically applying across the skin forceps pinches (for mechano-nociception) and brief applications of a 60° C. heat probe (for heat-nociception); the presence of nociceptive endings is indicated during these procedures when the stimuli elicit the “CTM reflex” response, a contraction of the underlying cutaneus trunci muscle, which causes a characteristic and easily recognized skin twitch (Theriault and Diamond, 1988). […]

[7] = tested on: rats with isolated mDCN-T13 field; experiment: Collateral sprouting of nociceptive nerves into adjacent denervated skin; type: in vivo, rat
Text: as §2, §3

[8] = tested on: unoperated rats, mDCN-T13 heat, pinch and touch fields; details: systemically injected NGF; Diamond et al., 1992; Pertens et al., 1999; cited from earlier work
unoperated animals [9] = details: rat, in vivo; cited from earlier work
[10] = unoperated rats, 50 mg/kg daily for 20 days, versus saline

## O=C(CCn1cnc2c(=O)[nH]cnc21)Nc1ccc(C(=O)O)cc1 [AIT-082, N-4-carboxyphenyl-3-(6-oxohydropurin-9-yl) propanamide]
[1]; control rats
  thermal response latency: without effect
[1]
  thermal hyperalgesia (week 4) and hypoalgesia (week 8): dose-dependently prevented both hyperalgesia and hypoalgesia
[1]; high dose 100 mg/kg
  thermal hyperalgesia (week 4) and hypoalgesia (week 8): completely prevented both hyperalgesia at week 4 and hypoalgesia at week 8
[2]; control rats
  SNCV: no effect
[2]; diabetic rats, week 4
  SNCV deficit: no effect
[2]; diabetic rats, week 8
  SNCV: dose-dependent improvement
[3]; daily i.p. injection of 50 mg/kg, not illustrated
  limited dose-response study for inducing nociceptive sprouting: well above threshold for inducing nociceptive sprouting, but below saturating levels
[3]; [10]
  nociceptive fields, pinch and heat (area of innervation): expanded significantly
  touch fields (NGF-insensitive Aβ fibers): unaffected
Unoperated animals [4]; FIG. 4(a)
  hyperalgesia, threshold temperature for foot withdrawal from a hot probe: does not cause hyperalgesia
Unoperated animals [4]; FIG. 4(b)
  hyperalgesia, threshold temperature for evoking the CTM reflex in dorsal skin: does not cause hyperalgesia
Unoperated animals [4]; FIG. 4(c)
  hyperalgesia, latency of foot withdrawal from a 49° C. hot bath: does not cause hyperalgesia
Unoperated animals [4]; standard AIT-082 administration, at any time during or following treatment
  hyperalgesia (a number of recognized tests): failed to provide any evidence for the occurrence of this phenomenon
[5]; control and diabetic rats
  formalin-evoked flinching: dose-dependently reduced
[5]; diabetic rats
  formalin-evoked hyperalgesia by phase: suppression of hyperalgesia was notable in phases 1, Q, and 2a
[6]; daily AIT-082 plus about 5-fold anti-NGF dose, fields after 22 days
  sprouting under supra-threshold ("high") anti-NGF treatment: sprouting continued to be absent
[6]; daily AIT-082 plus daily anti-NGF, pinch and heat fields after 22 days
  sprouting under threshold ("low") anti-NGF treatment: totally rescued the sprouting
[7]; after 20 days of treatment, comparison from raw data of FIGS. 1 and 2
  amount by which field expansions in the AIT-082 sprouting group exceeded controls: approximately equal to the expansion in field areas induced in unoperated animals
[7]; daily AIT-082 after field isolation, mapping every 3 or 4 days
  expansion of nociceptive fields into adjacent denervated skin relative to control group: increased expansion of the nociceptive fields
[7]; daily AIT-082 versus saline
  time at which increased field expansion became apparent: about 13 days post-isolation

## NGF: nerve growth factor, exogenous, systemically injected
[8]
  sprouting in normal skin: induces sprouting in normal skin
Unoperated animals [9]
  hyperalgesia: causes hyperalgesia
